Test results reported in ChEMBL document CHEMBL4190169 (Medchemcomm, 2016).
pIC50: −log10 of the molar value.

Key:
[1] = biological target: T1, Prostaglandin G/H synthase 1 (Ovis aries, UniProt P05979); test: Inhibition of ovine COX1 using arachidonic acid as substrate incubated for 5 mins followed by substrate addition measured after 2 mins by enzyme immunoassay
T1 sequence (P05979 whole entry): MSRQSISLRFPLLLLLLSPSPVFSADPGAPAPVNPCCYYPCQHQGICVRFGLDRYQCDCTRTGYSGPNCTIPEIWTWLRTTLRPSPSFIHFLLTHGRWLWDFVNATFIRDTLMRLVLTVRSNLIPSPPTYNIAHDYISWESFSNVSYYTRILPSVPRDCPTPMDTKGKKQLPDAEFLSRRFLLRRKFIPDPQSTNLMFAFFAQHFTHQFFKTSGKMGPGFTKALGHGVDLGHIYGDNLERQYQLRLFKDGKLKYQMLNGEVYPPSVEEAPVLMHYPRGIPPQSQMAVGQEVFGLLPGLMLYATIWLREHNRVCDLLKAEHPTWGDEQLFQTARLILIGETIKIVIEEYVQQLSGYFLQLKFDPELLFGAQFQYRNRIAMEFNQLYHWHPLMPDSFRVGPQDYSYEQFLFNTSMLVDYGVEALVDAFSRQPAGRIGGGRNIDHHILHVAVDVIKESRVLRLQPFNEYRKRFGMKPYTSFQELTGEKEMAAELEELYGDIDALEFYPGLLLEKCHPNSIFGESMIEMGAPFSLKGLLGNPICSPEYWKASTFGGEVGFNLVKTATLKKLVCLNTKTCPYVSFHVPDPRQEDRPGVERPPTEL

Rattus norvegicus [2] = test: Antiinflammatory activity in gamma-irradiated carrageenan-induced Wistar rat paw edema model assessed as paw oedema at 100 mg/kg, ip administered 1 hr prior to carrageenan challenge measured after 3 hrs (reference value: 89.5 +/- 1.47%); assay type: functional
Rattus norvegicus [3] = test: Analgesic activity in gamma-irradiated carrageenan-induced Wistar rat hyperalgesia model assessed as nociceptive threshold at 100 mg/kg, ip administered 1 hr prior to carrageenan challenge measured after 3 hrs by analgesimetric analysis (reference value: 37.60 +/- 0.79 g); assay type: functional
Rattus norvegicus [4] = test: Ulcerogenic activity in Wistar rat assessed as appearance of ulcers and erosions in stomach by measuring ulcer index at 100 mg/kg, po measured after 4 hrs; assay type: toxicity, organism-based; conditions: in vivo
[5] = Acute toxicity in Swiss albino mouse assessed as mortality administered ip measured for 24 hrs; assay type: organism-based; conditions: in vivo, read-out: ALD50

pIC50 [1] | Compound | Activity (Rattus norvegicus [2]) | Activity (Rattus norvegicus [3]) | UI (Rattus norvegicus [4]) | LD50 at 24 h [5]
< 4.30 | Cc1ccc(/C=N/c2n[nH]c(=S)s2)cc1 |  |  |  | 
< 4.30 | O=C1CSC2SC(/N=C/c3ccc(Br)cc3)=NN12 (stereo not given) | 50.49% | 44.91 g | 0 | 
5.87 | COc1ccc(C2C=C(c3ccccc3)N3NC(=S)SC3=N2)cc1 (stereo not given) | 43.6% | 66.6 g | 0.64 | 
< 4.30 | Cc1ccc(/C=N/C2=NN3C(=O)CSC3S2)cc1 (stereo not given) |  |  |  | 
< 4.30 | Nc1nnc(S)s1 |  |  |  | 
< 4.30 | O=S(=O)(Nc1ccccn1)c1ccc(NCNc2n[nH]c(=S)s2)cc1 |  |  |  | 
< 4.30 | N#CC1=C(N)N=C2SC(=S)NN2C1c1ccccc1 (stereo not given) |  |  |  | 
< 4.30 | N=c1cc(Nc2ccc(S(N)(=O)=O)cc2)n2[nH]c(=S)sc2n1 |  |  |  | 
< 4.30 | S=C1NN2C(c3ccccc3)=CC(c3ccccc3Cl)N=C2S1 (stereo not given) |  |  |  | 
< 4.30 | Cc1ccc(C2SCC(=O)N2c2n[nH]c(=S)s2)cc1 (stereo not given) |  |  |  | 
< 4.30 | N#CC1=C(N)N=C2SC(=S)NN2C1c1ccc(Br)cc1 (stereo not given) | 31.3% | 60.51 g | 0.05 | 
4.38 | COc1ccc(/C=N/c2n[nH]c(=S)s2)cc1 | 41.53% | 56.3 g | 0.38 | 
4.62 | COc1ccc(C2SCC(=O)N2c2n[nH]c(=S)s2)cc1 (stereo not given) | 31.5% | 62.37 g | 0.26 | 
< 4.30 | CN(C)c1ccc(C2C(C#N)=C(N)N=C3SC(=S)NN32)cc1 (stereo not given) | 43.7% | 53.88 g | 0 | 
< 4.30 | O=C1CSC2SC(/N=C/c3ccc(Cl)cc3)=NN12 (stereo not given) |  |  |  | 

The next lines start with the compound.

Compound | pIC50 [1] | Activity (Rattus norvegicus [2]) | Activity (Rattus norvegicus [3]) | UI (Rattus norvegicus [4]) | LD50 at 24 h [5]
O=S(=O)(Nc1ncccn1)c1ccc(NCNc2n[nH]c(=S)s2)cc1 | < 4.30 |  |  |  | 
Cc1ccc(-c2cc(C(F)(F)F)nn2-c2ccc(S(N)(=O)=O)cc2)cc1 [CELECOXIB] |  | 18.61% | 90.23 g | 0 | 
N#CC1=C(N)N=C2SC(=S)NN2C1c1ccc(Cl)cc1 (stereo not given) | < 4.30 |  |  |  | 
Cc1cc(C)nc(NS(=O)(=O)c2ccc(NCNc3n[nH]c(=S)s3)cc2)n1 | < 4.30 |  |  |  | 
O=S(=O)(Nc1nccs1)c1ccc(NCNc2n[nH]c(=S)s2)cc1 | < 4.30 | 24.6% | 90.21 g | 0 | > 1000 mg/kg
O=C1CSC(c2ccc(Cl)cc2)N1c1n[nH]c(=S)s1 (stereo not given) | < 4.30 |  |  |  | 
N=c1cc(Nc2ccc(S(=O)(=O)Nc3nccs3)cc2)n2[nH]c(=S)sc2n1 | < 4.30 | 25.13% | 76.51 g | 0.05 | > 1000 mg/kg
S=C1NN2C(c3ccccc3)=CC(c3ccc(Br)cc3)N=C2S1 (stereo not given) | < 4.30 |  |  |  | 
S=c1[nH]nc(/N=C/c2ccc(Cl)cc2)s1 | < 4.30 |  |  |  | 
Cc1ccnc(NS(=O)(=O)c2ccc(NCNc3n[nH]c(=S)s3)cc2)n1 | < 4.30 | 25.31% | 80.78 g | 0.05 | > 800 mg/kg
N=c1cc(Nc2ccc(S(=O)(=O)Nc3ncccn3)cc2)n2[nH]c(=S)sc2n1 | < 4.30 |  |  |  | 
CN(C)c1ccc(C2C=C(c3ccccc3)N3NC(=S)SC3=N2)cc1 (stereo not given) | < 4.30 |  |  |  | 
S=c1[nH]nc(/N=C/c2ccc(Br)cc2)s1 | < 4.30 | 45.62% | 95.6 g | 0 | 
S=C1NN2C(c3ccccc3)=CC(c3ccc(Cl)cc3)N=C2S1 (stereo not given) | 4.51 | 43.1% | 78.51 g | 0.6 | 
COc1ccc(/C=N/C2=NN3C(=O)CSC3S2)cc1 (stereo not given) | < 4.30 | 15.47% | 54.13 g | 0.05 | > 800 mg/kg
N#CC1=C(N)N=C2SC(=S)NN2C1c1ccc([N+](=O)[O-])cc1 (stereo not given) | < 4.30 |  |  |  | 
COc1ccc(C2C(C#N)=C(N)N=C3SC(=S)NN32)cc1 (stereo not given) | < 4.30 |  |  |  | 
O=C1CSC(c2ccc(Br)cc2)N1c1n[nH]c(=S)s1 (stereo not given) | 5.88 | 25.07% | 51.51 g | 0.45 | > 1000 mg/kg
N=c1cc(Nc2ccc(S(=O)(=O)Nc3ccccn3)cc2)n2[nH]c(=S)sc2n1 | < 4.30 | 24.21% | 85.8 g | 0.05 | > 800 mg/kg
NS(=O)(=O)c1ccc(NCNc2n[nH]c(=S)s2)cc1 | < 4.30 |  |  |  | 
